Data as given in patent publication US11053204B2, “Pyrimidinyloxy benzene derivatives as herbicides” (FMC Corporation, priority 2015, dated 2021).

What was measured:
Type in all cases: in vivo
[1] = tested on: oat, wild (wild oat Avena fatua); test: Test C postemergence, plant response rating; settings: Avena fatua, post-emergence
From the text: (§1) Seeds of plant species selected from blackgrass (Alopecurus myosuroides), ryegrass, Italian (Italian ryegrass, Lolium multiflorum), wheat (winter wheat, Triticum aestivum), galium (catchweed bedstraw, Galium aparine), corn (Zea mays), crabgrass, large (large crabgrass, Digitaria sanguinalis), foxtail, giant (giant foxtail, Setaria faberii), johnsongrass (Sorghum halepense), lambsquarters (Chenopodium album), morningglory (Ipomoea coccinea), nutsedge, yellow (yellow nutsedge, Cyperus esculentus), pigweed (Amaranthus retroflexus), ragweed (common ragweed, Ambrosia elatior), soybean (Glycine max), barnyardgrass (Echinochloa crus-galli), oilseed rape (Brassica napus), pigweed, palmer (palmer pigweed, Amaranthus palmeri), waterhemp (common waterhemp, Amaranthus rudis), velvetleaf (Abutilon theophrasti), kochia (Kochia scoparia), surinam grass (Brachiaria decumbens), nightshade (eastern black nightshade, Solanum ptycanthum), wild poinsettia (Euphorbia heterophylla), windgrass (Apera spica-venti), and oat, wild (wild oat Avena fatua), were planted into a blend of loam soil and sand or a silt loam soil and treated preemergence with test chemicals formulated in a non-phytotoxic solvent mixture which included a surfactant.
(§2) At the same time, plants selected from these crop and weed species and also chickweed (common chickweed, Stellaria media), buckwheat, wild (wild buckwheat, Polygonum convolvulus), wild mustard (Sinapis arvensis), field poppy (Papaver rhoeas), field violet (Viola arvensis), geranium, cutleaf (cutleaf geranium, Geranium dissectum), Canada thistle (Cirsium arvense), and speedwell (bird's-eye speedwell, Veronica persica), were planted in pots containing Sunshine Redi-Earth® planting medium comprising spaghnum peat moss, vermiculite, starter nutrients and dolomitic limestone and treated with postemergence applications of test chemicals formulated in the same manner. Plants ranged in height from 2 to 18 cm (1- to 4-leaf stage) for postemergence treatments. Treated plants and controls were maintained in a greenhouse for 13 to 15 d, after which time all species were compared to controls and visually evaluated. Plant response ratings, summarized in Table C, are based on a scale of 0 to 100 where 0 is no effect and 100 is complete control. A dash (-) response means no test result.

[2] = tested on: velvetleaf (Abutilon theophrasti); test: Test C postemergence, plant response rating; settings: Abutilon theophrasti, post-emergence
From the text: as §1, §2

[3] = tested on: soybean (Glycine max); test: Test C postemergence, plant response rating; settings: Glycine max, post-emergence
From the text: as §1, §2

[4] = tested on: foxtail, giant (giant foxtail, Setaria faberii); test: Test C postemergence, plant response rating; settings: Setaria faberi, post-emergence
From the text: as §1, §2

[5] = tested on: ragweed (common ragweed, Ambrosia elatior); test: Test C postemergence, plant response rating; settings: Ambrosia artemisiifolia, post-emergence
From the text: as §1, §2

[6] = tested on: lambsquarters (Chenopodium album); test: Test C postemergence, plant response rating; settings: Chenopodium album, post-emergence
From the text: as §1, §2

[7] = tested on: ryegrass, Italian (Italian ryegrass, Lolium multiflorum); test: Test C postemergence, plant response rating; settings: Lolium multiflorum, post-emergence
From the text: as §1, §2

[8] = tested on: chickweed (common chickweed, Stellaria media); test: Test C postemergence, plant response rating; settings: Stellaria media, post-emergence
From the text: as §1, §2

[9] = tested on: barnyardgrass (Echinochloa crus-galli); test: Test A postemergence, visual injury rating; settings: Echinochloa crus-galli, post-emergence, 240 h, 0 is no effect, 100 is complete control, read-out: Barnyardgrass plant response rating (0 to 100 scale)
Procedure, shortened: (§3)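 Scoring: eye-based comparison with untreated controls, 0 for no effect through 100 for complete control, at about day 10. Treatments: directed soil spray preemergence; foliar spray postemergence on 2–10 cm plants at the one- to two-leaf stage. Medium: loam soil with sand.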

[10] = tested on: corn (Zea mays); test: Test A postemergence, visual injury rating; settings: Zea mays, post-emergence, 240 h, 0 is no effect, 100 is complete control, read-out: Corn plant response rating (0 to 100 scale)
Procedure, shortened: as §3

[11] = tested on: Italian ryegrass (Lolium multiflorum); test: Test A postemergence, visual injury rating; settings: Lolium multiflorum, post-emergence, 240 h, 0 is no effect, 100 is complete control, read-out: Ryegrass, Italian plant response rating (0 to 100 scale)
Procedure, shortened: as §3

[12] = tested on: pigweed (Amaranthus retroflexus); test: Test A postemergence, visual injury rating; settings: Amaranthus retroflexus, post-emergence, 240 h, 0 is no effect, 100 is complete control, read-out: Pigweed plant response rating (0 to 100 scale)
Procedure, shortened: as §3

[13] = tested on: ragweed (common ragweed, Ambrosia elatior); test: Test A postemergence, visual injury rating; settings: Ambrosia artemisiifolia, post-emergence, 240 h, 0 is no effect, 100 is complete control, read-out: Ragweed plant response rating (0 to 100 scale)
Procedure, shortened: as §3

[14] = tested on: wheat (Triticum aestivum); test: Test A postemergence, visual injury rating; settings: Triticum aestivum, post-emergence, 240 h, 0 is no effect, 100 is complete control, read-out: Wheat plant response rating (0 to 100 scale)
Procedure, shortened: as §3

[15] = tested on: galium (catchweed bedstraw, Galium aparine); test: Test A postemergence, visual injury rating; settings: Galium, post-emergence, 240 h, 0 is no effect, 100 is complete control, read-out: Galium plant response rating (0 to 100 scale)
Procedure, shortened: as §3

[16] = tested on: blackgrass (Alopecurus myosuroides); test: Test A postemergence, visual injury rating; settings: Alopecurus myosuroides, post-emergence, 240 h, 0 is no effect, 100 is complete control, read-out: Blackgrass plant response rating (0 to 100 scale)
Procedure, shortened: as §3

[17] = tested on: kochia (Kochia scoparia); test: Test A postemergence, visual injury rating; settings: Bassia scoparia, post-emergence, 240 h, 0 is no effect, 100 is complete control, read-out: Kochia plant response rating (0 to 100 scale)
Procedure, shortened: as §3

[18] = tested on: giant foxtail (Setaria faberii); test: Test A postemergence, visual injury rating; settings: Setaria faberi, post-emergence, 240 h, 0 is no effect, 100 is complete control, read-out: Foxtail, Giant plant response rating (0 to 100 scale)
Procedure, shortened: as §3

Q: What does the source list for `CCCOC(=O)c1c(Br)cccc1Oc1ncc(Cl)cn1` [Compound 13, propyl 2-bromo-6-[(5-chloro-2-pyrimidinyl)oxy]benzoate]?
A: pest or weed control at 4 g/ha ([1]; 4 g ai/ha, scale of 0 to 100): 0%; pest or weed control at 8 g/ha ([1]; 8 g ai/ha, scale of 0 to 100): 0%; pest or weed control at 16 g/ha ([1]; 16 g ai/ha, scale 0 to 100): 0%; pest or weed control at 31 g/ha ([1]; 31 g ai/ha, scale 0 to 100): 5%; pest or weed control at 4 g/ha ([2]; 4 g ai/ha, scale of 0 to 100): 15%; pest or weed control at 8 g/ha ([2]; 8 g ai/ha, scale of 0 to 100): 15%; pest or weed control at 16 g/ha ([2]; 16 g ai/ha, scale 0 to 100): 20%; pest or weed control at 31 g/ha ([2]; 31 g ai/ha, scale 0 to 100): 25%; plant injury at 4 g/ha ([3]; 4 g ai/ha, scale of 0 to 100): 15%; plant injury at 8 g/ha ([3]; 8 g ai/ha, scale of 0 to 100): 20%; plant injury at 16 g/ha ([3]; 16 g ai/ha, scale 0 to 100): 30%; plant injury at 31 g/ha ([3]; 31 g ai/ha, scale 0 to 100): 35%; pest or weed control at 4 g/ha ([4]; 4 g ai/ha, scale of 0 to 100): 5%; pest or weed control at 8 g/ha ([4]; 8 g ai/ha, scale of 0 to 100): 5%; pest or weed control at 16 g/ha ([4]; 16 g ai/ha, scale 0 to 100): 10%; pest or weed control at 31 g/ha ([4]; 31 g ai/ha, scale 0 to 100): 25%; pest or weed control at 4 g/ha ([5]; 4 g ai/ha, scale of 0 to 100): 5%; pest or weed control at 8 g/ha ([5]; 8 g ai/ha, scale of 0 to 100): 5%; pest or weed control at 16 g/ha ([5]; 16 g ai/ha, scale 0 to 100): 5%; pest or weed control at 31 g/ha ([5]; 31 g ai/ha, scale 0 to 100): 5%; pest or weed control at 4 g/ha ([6]; 4 g ai/ha, scale of 0 to 100): 30%; pest or weed control at 8 g/ha ([6]; 8 g ai/ha, scale of 0 to 100): 60%; pest or weed control at 16 g/ha ([6]; 16 g ai/ha, scale 0 to 100): 50%; pest or weed control at 31 g/ha ([6]; 31 g ai/ha, scale 0 to 100): 55%; pest or weed control at 4 g/ha ([7]; 4 g ai/ha, scale of 0 to 100): 0%; pest or weed control at 8 g/ha ([7]; 8 g ai/ha, scale of 0 to 100): 0%; pest or weed control at 16 g/ha ([7]; 16 g ai/ha, scale 0 to 100): 0%; pest or weed control at 31 g/ha ([7]; 31 g ai/ha, scale 0 to 100): 0%; pest or weed control at 4 g/ha ([8]; 4 g ai/ha, scale of 0 to 100): 5%; pest or weed control at 8 g/ha ([8]; 8 g ai/ha, scale of 0 to 100): 5%; pest or weed control at 16 g/ha ([8]; 16 g ai/ha, scale 0 to 100): 40%; pest or weed control at 31 g/ha ([8]; 31 g ai/ha, scale 0 to 100): 70%; pest or weed control at 125 g/ha ([9]; 125 g ai/ha): 80%; pest or weed control at 500 g/ha ([9]; 500 g ai/ha): 100%; plant injury at 125 g/ha ([10]; 125 g ai/ha): 30%; plant injury at 500 g/ha ([10]; 500 g ai/ha): 90%; pest or weed control at 125 g/ha ([11]; 125 g ai/ha): 0%; pest or weed control at 500 g/ha ([11]; 500 g ai/ha): 100%; pest or weed control at 125 g/ha ([12]; 125 g ai/ha): 90%; pest or weed control at 500 g/ha ([12]; 500 g ai/ha): 100%; pest or weed control at 125 g/ha ([13]; 125 g ai/ha): 0%; pest or weed control at 500 g/ha ([13]; 500 g ai/ha): 20%; plant injury at 125 g/ha ([14]; 125 g ai/ha): 20%; plant injury at 500 g/ha ([14]; 500 g ai/ha): 30%; pest or weed control at 125 g/ha ([15]; 125 g ai/ha): 100%; pest or weed control at 500 g/ha ([15]; 500 g ai/ha): 100%; pest or weed control at 125 g/ha ([16]; 125 g ai/ha): 30%; pest or weed control at 500 g/ha ([16]; 500 g ai/ha): 70%; pest or weed control at 125 g/ha ([17]; 125 g ai/ha): 100%; pest or weed control at 500 g/ha ([17]; 500 g ai/ha): 100%; pest or weed control at 125 g/ha ([18]; 125 g ai/ha): 80%; pest or weed control at 500 g/ha ([18]; 500 g ai/ha): 100%
